≈ marks a conversion by molar mass, not a printed value.

One test deals with Pasteurella multocida PM 10775 (080130003051, BRD field isolate). Briefly: MIC, broth-microdilution (CLSI VET01-A4), strain PM 10775. Format: cell-based. The conditions noted are these: Pasteurella multocida strain PM 10775, broth-microdilution; unit assumed. As for the experimental part:
(§1) For example, representative compounds were tested against ***, Mannheimia haemolytica and Pasteurella multocida, using the conventional broth-dilution assay.
(§2) The Minimum inhibitory concentrations (MIC) of compounds according to the invention for a number of veterinary bacterial pathogens were determined by the broth-microdilution method according to CLSI document VET01-A4.
(§3) Microdilution trays containing a doubling dilution series of the test compound were used for the tests. The MIC results were interpreted according to the CLSI documents VET01-S3. The lowest concentration of compound at which no visible growth (i.e. no turbidity) detected by the unaided eye was recorded as the MIC.
Take `COc1ccc(CNCc2cccc(C#Cc3ccc(C(=O)N[C@H](C(=O)NO)C(C)C)cc3)c2)cc1` [Compound 43]: the MIC PM 10775 amounted to 0.4 µg/mL (≈ 0.824 µM).
Compound `CC[C@H](C)[C@H](NC(=O)c1ccc(C#Cc2ccc(CN3CCOCC3)cc2)cc1)C(=O)NO` [Compound 119] registered an MIC PM 10775 of no more than 0.1 µg/mL.
The compound `COc1ccc(CNCc2ccc(C#Cc3ccc(C(=O)N[C@H](C(=O)NO)C(C)C)cc3)cc2)cc1` [Compound 107] showed an MIC PM 10775 of no more than 0.1 µg/mL.
For `CC(C)[C@H](NC(=O)c1ccc(C#Cc2ccc(CN3CCOCC3)cc2)cc1)C(=O)NO` [Compound 98], the MIC PM 10775 is no more than 0.1 µg/mL.

For a further test, the system named is Mannheimia haemolytica MH 6357 (M7/2, reference strain, cattle infection strain). Briefly: MIC, broth-microdilution (CLSI VET01-A4), strain MH 6357. Format: cell-based. The conditions noted are these: Mannheimia haemolytica strain MH 6357, broth-microdilution; unit assumed. As for the experimental part:
as §1, §2, §3
The compound `COc1ccc(CNCc2cccc(C#Cc3ccc(C(=O)N[C@H](C(=O)NO)C(C)C)cc3)c2)cc1` [Compound 43] registered an MIC MH 6357 of 6.3 µg/mL (≈ 13 µM).
The compound `CC[C@H](C)[C@H](NC(=O)c1ccc(C#Cc2ccc(CN3CCOCC3)cc2)cc1)C(=O)NO` [Compound 119] came in with an MIC MH 6357 of 1.6 µg/mL (≈ 3.56 µM).
For the compound `COc1ccc(CNCc2ccc(C#Cc3ccc(C(=O)N[C@H](C(=O)NO)C(C)C)cc3)cc2)cc1` [Compound 107], the MIC MH 6357 is 3.1 µg/mL (≈ 6.38 µM).
`CC(C)[C@H](NC(=O)c1ccc(C#Cc2ccc(CN3CCOCC3)cc2)cc1)C(=O)NO` [Compound 98] yielded an MIC MH 6357 of 0.8 µg/mL (≈ 1.84 µM).

In another test the test system is Pasteurella multocida PM 6267 (P 2225 (L386), reference strain, mouse infection strain). Briefly: MIC, broth-microdilution (CLSI VET01-A4), strain PM 6267. The conditions noted are these: Pasteurella multocida strain PM 6267, broth-microdilution; unit assumed. Format: cell-based. As for the experimental part: as §1, §2, §3
`COc1ccc(CNCc2cccc(C#Cc3ccc(C(=O)N[C@H](C(=O)NO)C(C)C)cc3)c2)cc1` [Compound 43] displayed an MIC PM 6267 of 3.1 µg/mL (≈ 6.38 µM).
For the compound `CC[C@H](C)[C@H](NC(=O)c1ccc(C#Cc2ccc(CN3CCOCC3)cc2)cc1)C(=O)NO` [Compound 119], the MIC PM 6267 is no more than 0.1 µg/mL.
Compound `COc1ccc(CNCc2ccc(C#Cc3ccc(C(=O)N[C@H](C(=O)NO)C(C)C)cc3)cc2)cc1` [Compound 107] returned an MIC PM 6267 of 0.2 µg/mL (≈ 0.412 µM).
For `CC(C)[C@H](NC(=O)c1ccc(C#Cc2ccc(CN3CCOCC3)cc2)cc1)C(=O)NO` [Compound 98], the MIC PM 6267 is no more than 0.1 µg/mL.

A further test deals with Mannheimia haemolytica MH 12587 (1071, BRD field isolate, macrolide-resistance: erm+, E+). Briefly: MIC, broth-microdilution (CLSI VET01-A4), strain MH 12587. Format: cell-based. The conditions noted are these: Mannheimia haemolytica strain MH 12587, broth-microdilution; unit assumed. As for the experimental part: as §1, §2, §3
Background: Broth dilution looks for growth in wells or tubes with falling amounts of substance.
In the case of `COc1ccc(CNCc2cccc(C#Cc3ccc(C(=O)N[C@H](C(=O)NO)C(C)C)cc3)c2)cc1` [Compound 43], the MIC MH 12587 was 12.5 µg/mL (≈ 25.7 µM).
`CC[C@H](C)[C@H](NC(=O)c1ccc(C#Cc2ccc(CN3CCOCC3)cc2)cc1)C(=O)NO` [Compound 119] had an MIC MH 12587 of 3.1 µg/mL (≈ 6.9 µM).
Compound `COc1ccc(CNCc2ccc(C#Cc3ccc(C(=O)N[C@H](C(=O)NO)C(C)C)cc3)cc2)cc1` [Compound 107] displayed an MIC MH 12587 of 3.1 µg/mL (≈ 6.38 µM).
The compound `CC(C)[C@H](NC(=O)c1ccc(C#Cc2ccc(CN3CCOCC3)cc2)cc1)C(=O)NO` [Compound 98] yielded an MIC MH 12587 of 1.6 µg/mL (≈ 3.67 µM).

Another test relates to Mannheimia haemolytica MH 6374 (ATCC 33396, reference strain). Briefly: MIC, broth-microdilution (CLSI VET01-A4), strain MH 6374. Format: cell-based. The settings on record: Mannheimia haemolytica strain MH 6374, broth-microdilution; unit assumed. As for the experimental part:
as §1, §2, §3
Turning to `COc1ccc(CNCc2cccc(C#Cc3ccc(C(=O)N[C@H](C(=O)NO)C(C)C)cc3)c2)cc1` [Compound 43], the MIC MH 6374 came out at 6.3 µg/mL (≈ 13 µM).
In turn, `CC[C@H](C)[C@H](NC(=O)c1ccc(C#Cc2ccc(CN3CCOCC3)cc2)cc1)C(=O)NO` [Compound 119] came in with an MIC MH 6374 of 1.6 µg/mL (≈ 3.56 µM).
Turning to `COc1ccc(CNCc2ccc(C#Cc3ccc(C(=O)N[C@H](C(=O)NO)C(C)C)cc3)cc2)cc1` [Compound 107], the MIC MH 6374 was determined as 0.8 µg/mL (≈ 1.65 µM).
The same measure, in the same setting: the figure for `CC(C)[C@H](NC(=O)c1ccc(C#Cc2ccc(CN3CCOCC3)cc2)cc1)C(=O)NO` [Compound 98] is 1.6 µg/mL (≈ 3.67 µM).

The test system of the next test is Mannheimia haemolytica MH 13093 (XB0472-6014.1, BRD field isolate). Briefly: MIC, broth-microdilution (CLSI VET01-A4), strain MH 13093. In kind it is cell-based. The settings on record: Mannheimia haemolytica strain MH 13093, broth-microdilution; unit assumed. The method, then: as §1, §2, §3
Turning to `COc1ccc(CNCc2cccc(C#Cc3ccc(C(=O)N[C@H](C(=O)NO)C(C)C)cc3)c2)cc1` [Compound 43], the MIC MH 13093 is 12.5 µg/mL (≈ 25.7 µM).
Same read-out and setting: the figure for `CC[C@H](C)[C@H](NC(=O)c1ccc(C#Cc2ccc(CN3CCOCC3)cc2)cc1)C(=O)NO` [Compound 119] is 3.1 µg/mL (≈ 6.9 µM); for `COc1ccc(CNCc2ccc(C#Cc3ccc(C(=O)N[C@H](C(=O)NO)C(C)C)cc3)cc2)cc1` [Compound 107] it is 0.8 µg/mL (≈ 1.65 µM).
`CC(C)[C@H](NC(=O)c1ccc(C#Cc2ccc(CN3CCOCC3)cc2)cc1)C(=O)NO` [Compound 98] came in with an MIC MH 13093 of 1.6 µg/mL (≈ 3.67 µM).

The test system of another test is Mannheimia haemolytica MH 13065 (XB0446-6003.9, BRD field isolate). Briefly: MIC, broth-microdilution (CLSI VET01-A4), strain MH 13065. The settings on record: Mannheimia haemolytica strain MH 13065, broth-microdilution; unit assumed. In kind it is cell-based. The method, then: as §1, §2, §3
Compound `COc1ccc(CNCc2cccc(C#Cc3ccc(C(=O)N[C@H](C(=O)NO)C(C)C)cc3)c2)cc1` [Compound 43] registered an MIC MH 13065 of 6.3 µg/mL (≈ 13 µM).
In turn, `CC[C@H](C)[C@H](NC(=O)c1ccc(C#Cc2ccc(CN3CCOCC3)cc2)cc1)C(=O)NO` [Compound 119] came in with an MIC MH 13065 of 1.6 µg/mL (≈ 3.56 µM).
In turn, `COc1ccc(CNCc2ccc(C#Cc3ccc(C(=O)N[C@H](C(=O)NO)C(C)C)cc3)cc2)cc1` [Compound 107] gave an MIC MH 13065 of 0.8 µg/mL (≈ 1.65 µM).
`CC(C)[C@H](NC(=O)c1ccc(C#Cc2ccc(CN3CCOCC3)cc2)cc1)C(=O)NO` [Compound 98] displayed an MIC MH 13065 of 1.6 µg/mL (≈ 3.67 µM).

A further test concerns Mannheimia haemolytica MH 10720 (154, BRD field isolate). Briefly: MIC, broth-microdilution (CLSI VET01-A4), strain MH 10720. Format: cell-based. The settings on record: Mannheimia haemolytica strain MH 10720, broth-microdilution; unit assumed. The method, then:
as §1, §2, §3
On to `COc1ccc(CNCc2cccc(C#Cc3ccc(C(=O)N[C@H](C(=O)NO)C(C)C)cc3)c2)cc1` [Compound 43], for which the MIC MH 10720 was determined as 1.6 µg/mL (≈ 3.3 µM).
In turn, `CC[C@H](C)[C@H](NC(=O)c1ccc(C#Cc2ccc(CN3CCOCC3)cc2)cc1)C(=O)NO` [Compound 119] displayed an MIC MH 10720 of 0.4 µg/mL (≈ 0.89 µM).
As to `COc1ccc(CNCc2ccc(C#Cc3ccc(C(=O)N[C@H](C(=O)NO)C(C)C)cc3)cc2)cc1` [Compound 107], the MIC MH 10720 stood at 0.4 µg/mL (≈ 0.824 µM).
`CC(C)[C@H](NC(=O)c1ccc(C#Cc2ccc(CN3CCOCC3)cc2)cc1)C(=O)NO` [Compound 98] gave an MIC MH 10720 of 0.4 µg/mL (≈ 0.918 µM).

The subject of a further test is Pasteurella multocida PM 12080 (IV102277-0093, BRD field isolate). Briefly: MIC, broth-microdilution (CLSI VET01-A4), strain PM 12080. Format: cell-based. The conditions noted are these: Pasteurella multocida strain PM 12080, broth-microdilution; unit assumed. The method, then:
as §1, §2, §3
With `COc1ccc(CNCc2cccc(C#Cc3ccc(C(=O)N[C@H](C(=O)NO)C(C)C)cc3)c2)cc1` [Compound 43], the MIC PM 12080 was 3.1 µg/mL (≈ 6.38 µM).
The same measure, in the same setting: then `CC[C@H](C)[C@H](NC(=O)c1ccc(C#Cc2ccc(CN3CCOCC3)cc2)cc1)C(=O)NO` [Compound 119], with no more than 0.1 µg/mL; and `COc1ccc(CNCc2ccc(C#Cc3ccc(C(=O)N[C@H](C(=O)NO)C(C)C)cc3)cc2)cc1` [Compound 107], with 0.4 µg/mL (≈ 0.824 µM).
In the case of `CC(C)[C@H](NC(=O)c1ccc(C#Cc2ccc(CN3CCOCC3)cc2)cc1)C(=O)NO` [Compound 98], the MIC PM 12080 was no more than 0.1 µg/mL.

For the origin of these results see patent US11034650B2, “Compounds useful for treating a Mannheimia haemolytica or Histophilus somni infection” (Intervet Inc., priority 2016, dated 2021).
